Experiments:
TLR4.Fc = target: T1, TLR4.Fc (Homo sapiens, UniProt O00206); experiment: Sugar competition EIA, TLR4.Fc binding to GLPS-F3; conditions: sugar 1 mg/ml
T1 construct: The extracellular domains of several innate immunity receptors from immune cells were cloned by reverse-transcription polymerase chain reaction (RT-PCR); made in house; host or cells: 293-F (FreeStyle 293) cells
Protocol: (§1) The interaction between GLPS-F3 and receptor.Fc was then tested. Unbiotinylated GLPS-F3 was immobilized at 100 ng/well as described above, and 100 μL receptor.Fc fusion protein (1 μg/ml in 2 mM MgCl2/2 mM CaCl2/1% BSA/TBST) was added into each well and incubated for 1 hour at room temperature. After washing with TBST, wells were incubated with peroxidase-conjugated goat anti-human IgG Ab (1:5000 dilution, Jackson ImmunoResearch Laboratories) in blocking buffer at room temperature for 30 min. Wells were incubated with 100 μL TMB substrate for 15 min after TBST washing and read at 450 nm in a Fusion plate reader (Perkin Elmer). The results were normalized with respect to Fc.Dectin-1 binding (Dectin-1 is a known lectin receptor that binds to β-1,3-glucan which is the backbone found in GLPS-F3). FIG. 6B depicts in graphical form the affinity of each receptor for GLPS-F3 relative to Dectin-1. […] There was also weaker but positive GLPS-F3 binding ability (25-50% binding intensity compared to Fc.dectin-1) found in Fc.NKG2D, Fc.MINCLE, Fc.mKCR, DCAL1.Fc, DEC205.Fc, Endo180.Fc and NKp30(NCR3).Fc.
(§2) To understand the interaction of GLPS-F3 with specific innate immunity receptors, the polysaccharides mannan and β-glucan and the monosaccharides D-mannose (Man), D-glucose (Glc), N-acetyl-glucosamine (GlcNAc), D-galactose (Gal), N-acetyl-galactosamine (GalNAc), L-fucose (Fuc) and sialic acid, were used in a competition assay. […] The assays were carried out as in Example 9, with the addition of 1 mg/ml of each polysaccharide or monosaccharide.

CLEC-6 = target: T2, CLEC-6 (Homo sapiens, UniProt Q8WXI8); experiment: Sugar competition EIA, Fc.CLEC-6 binding to GLPS-F3; conditions: sugar 1 mg/ml
T2 construct: The extracellular domains of lectin receptors, TREMs and TLTs were cloned by the reverse-transcriptase polymerase chain reaction (RT-PCR); made in house; host or cells: 293-F (FreeStyle 293) cells
T2 sequence (Q8WXI8 39-215 limits assumed): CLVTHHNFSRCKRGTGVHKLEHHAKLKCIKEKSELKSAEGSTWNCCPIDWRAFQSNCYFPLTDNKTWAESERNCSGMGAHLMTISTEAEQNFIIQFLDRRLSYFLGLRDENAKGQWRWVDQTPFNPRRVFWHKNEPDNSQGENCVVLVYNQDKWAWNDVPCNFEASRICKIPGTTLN
Protocol: as §1, §2

Dectin-1 = target: T3, Dectin-1 (Homo sapiens, UniProt Q9BXN2); experiment: Sugar competition EIA, Fc.Dectin-1 binding to GLPS-F3; conditions: sugar 1 mg/ml
T3 construct: The extracellular domains of lectin receptors, TREMs and TLTs were cloned by the reverse-transcriptase polymerase chain reaction (RT-PCR); made in house; host or cells: 293-F (FreeStyle 293) cells
T3 sequence (Q9BXN2 66-247 limits assumed): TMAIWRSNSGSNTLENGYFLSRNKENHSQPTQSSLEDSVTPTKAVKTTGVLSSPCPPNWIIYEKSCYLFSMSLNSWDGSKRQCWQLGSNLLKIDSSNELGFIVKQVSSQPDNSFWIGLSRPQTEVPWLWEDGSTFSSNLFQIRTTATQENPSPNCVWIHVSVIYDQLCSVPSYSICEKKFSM
Protocol: as §1, §2

CLEC-2 = target: T4, CLEC-2 (Homo sapiens, UniProt Q9P126); experiment: Sugar competition EIA, Fc.CLEC-2 binding to GLPS-F3; conditions: sugar 1 mg/ml
T4 construct: The extracellular domains of lectin receptors, TREMs and TLTs were cloned by the reverse-transcriptase polymerase chain reaction (RT-PCR); made in house; host or cells: 293-F (FreeStyle 293) cells
T4 sequence (Q9P126 55-229 limits assumed): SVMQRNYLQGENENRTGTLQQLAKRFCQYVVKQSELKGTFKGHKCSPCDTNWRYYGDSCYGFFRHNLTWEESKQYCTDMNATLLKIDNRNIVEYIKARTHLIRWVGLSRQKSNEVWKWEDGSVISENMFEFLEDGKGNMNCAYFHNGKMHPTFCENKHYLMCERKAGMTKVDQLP
Protocol: as §1, §2

DC-SIGN = target: T5, DC-SIGN (Homo sapiens, UniProt Q9NNX6); experiment: Sugar competition EIA, Fc.DC-SIGN binding to GLPS-F3; conditions: sugar 1 mg/ml
T5 construct: The extracellular domains of lectin receptors, TREMs and TLTs were cloned by the reverse-transcriptase polymerase chain reaction (RT-PCR); made in house; host or cells: 293-F (FreeStyle 293) cells
T5 sequence (Q9NNX6 59-404 limits assumed): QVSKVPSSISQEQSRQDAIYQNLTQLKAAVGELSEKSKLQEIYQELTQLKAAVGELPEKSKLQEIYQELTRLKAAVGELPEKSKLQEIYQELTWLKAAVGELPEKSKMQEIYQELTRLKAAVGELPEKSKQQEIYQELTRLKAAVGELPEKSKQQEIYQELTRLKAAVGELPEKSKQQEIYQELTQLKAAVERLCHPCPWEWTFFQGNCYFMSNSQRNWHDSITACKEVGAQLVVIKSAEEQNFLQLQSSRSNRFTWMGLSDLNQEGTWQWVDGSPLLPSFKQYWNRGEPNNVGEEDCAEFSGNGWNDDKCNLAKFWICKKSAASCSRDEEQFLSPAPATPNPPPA
Protocol: as §1, §2

MMR.Fc = target: T6, MMR.Fc (Homo sapiens, UniProt P22897); experiment: Sugar competition EIA, MMR.Fc binding to GLPS-F3; conditions: sugar 1 mg/ml
T6 construct: The extracellular domains of lectin receptors, TREMs and TLTs were cloned by the reverse-transcriptase polymerase chain reaction (RT-PCR); made in house; host or cells: 293-F (FreeStyle 293) cells
T6 sequence (P22897 19-1389 limits assumed): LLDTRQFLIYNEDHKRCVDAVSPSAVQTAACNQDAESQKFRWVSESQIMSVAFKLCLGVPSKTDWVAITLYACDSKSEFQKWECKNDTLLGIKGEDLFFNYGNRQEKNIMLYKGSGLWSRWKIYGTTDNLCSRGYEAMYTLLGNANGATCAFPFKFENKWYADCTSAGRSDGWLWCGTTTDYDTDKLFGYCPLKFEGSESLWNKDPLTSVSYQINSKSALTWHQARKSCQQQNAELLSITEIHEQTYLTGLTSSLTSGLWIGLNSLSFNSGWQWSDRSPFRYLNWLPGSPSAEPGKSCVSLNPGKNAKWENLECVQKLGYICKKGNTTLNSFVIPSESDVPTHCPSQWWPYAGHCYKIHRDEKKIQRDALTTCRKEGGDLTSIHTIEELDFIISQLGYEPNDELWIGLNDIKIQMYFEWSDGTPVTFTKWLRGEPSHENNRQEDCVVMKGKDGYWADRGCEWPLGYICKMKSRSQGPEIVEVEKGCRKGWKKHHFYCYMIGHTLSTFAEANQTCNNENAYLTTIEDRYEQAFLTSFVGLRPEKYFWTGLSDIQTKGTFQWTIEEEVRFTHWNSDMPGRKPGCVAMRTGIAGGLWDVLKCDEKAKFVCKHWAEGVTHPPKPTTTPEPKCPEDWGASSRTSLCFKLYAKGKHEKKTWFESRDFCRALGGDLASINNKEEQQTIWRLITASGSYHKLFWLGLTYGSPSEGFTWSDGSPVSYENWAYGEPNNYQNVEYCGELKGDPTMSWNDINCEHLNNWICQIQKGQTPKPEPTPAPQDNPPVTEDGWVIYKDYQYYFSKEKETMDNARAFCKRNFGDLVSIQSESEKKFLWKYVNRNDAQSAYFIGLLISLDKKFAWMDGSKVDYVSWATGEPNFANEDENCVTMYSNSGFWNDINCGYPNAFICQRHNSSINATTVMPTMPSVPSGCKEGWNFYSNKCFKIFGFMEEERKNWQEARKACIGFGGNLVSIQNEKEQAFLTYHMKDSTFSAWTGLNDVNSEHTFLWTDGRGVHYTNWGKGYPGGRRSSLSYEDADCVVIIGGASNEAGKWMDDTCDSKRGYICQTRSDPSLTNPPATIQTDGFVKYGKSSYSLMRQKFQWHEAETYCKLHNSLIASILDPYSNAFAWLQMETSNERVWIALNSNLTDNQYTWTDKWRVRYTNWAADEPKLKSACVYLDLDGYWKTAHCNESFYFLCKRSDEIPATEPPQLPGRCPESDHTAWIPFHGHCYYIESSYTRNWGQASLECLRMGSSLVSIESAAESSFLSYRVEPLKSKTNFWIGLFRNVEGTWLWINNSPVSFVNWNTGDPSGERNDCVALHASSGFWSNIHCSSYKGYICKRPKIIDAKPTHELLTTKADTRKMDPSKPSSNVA
Protocol: as §1, §2

Langerin = target: T7, Langerin (Homo sapiens, UniProt Q9UJ71); experiment: Sugar competition EIA, Fc.Langerin binding to GLPS-F3; conditions: sugar 1 mg/ml
T7 construct: The extracellular domains of lectin receptors, TREMs and TLTs were cloned by the reverse-transcriptase polymerase chain reaction (RT-PCR); made in house; host or cells: 293-F (FreeStyle 293) cells
T7 sequence (Q9UJ71 65-328 limits assumed): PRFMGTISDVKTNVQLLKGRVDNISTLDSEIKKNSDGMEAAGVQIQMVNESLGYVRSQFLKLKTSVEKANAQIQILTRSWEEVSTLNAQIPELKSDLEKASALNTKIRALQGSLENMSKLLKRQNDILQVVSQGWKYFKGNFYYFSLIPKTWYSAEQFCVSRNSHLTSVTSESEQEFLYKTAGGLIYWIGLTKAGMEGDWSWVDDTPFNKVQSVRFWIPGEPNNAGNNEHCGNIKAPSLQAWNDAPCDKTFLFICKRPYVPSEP
Protocol: as §1, §2

Dectin-1.Fc = target: T8, Dectin-1.Fc (Homo sapiens, UniProt Q9BXN2); experiment: Immunosorbent dot binding assay with Dectin-1.Fc; conditions: competitor 0.1 μg-1000 μg, or EDTA 10 mM in TBST
T8 construct: The extracellular domains of lectin receptors, TREMs and TLTs were cloned by the reverse-transcriptase polymerase chain reaction (RT-PCR); made in house; host or cells: 293-F (FreeStyle 293) cells
T8 sequence (Q9BXN2 66-247 limits assumed): T3 sequence (Q9BXN2 66-247 limits assumed)

T1 sequence (O00206 24-631 limits assumed): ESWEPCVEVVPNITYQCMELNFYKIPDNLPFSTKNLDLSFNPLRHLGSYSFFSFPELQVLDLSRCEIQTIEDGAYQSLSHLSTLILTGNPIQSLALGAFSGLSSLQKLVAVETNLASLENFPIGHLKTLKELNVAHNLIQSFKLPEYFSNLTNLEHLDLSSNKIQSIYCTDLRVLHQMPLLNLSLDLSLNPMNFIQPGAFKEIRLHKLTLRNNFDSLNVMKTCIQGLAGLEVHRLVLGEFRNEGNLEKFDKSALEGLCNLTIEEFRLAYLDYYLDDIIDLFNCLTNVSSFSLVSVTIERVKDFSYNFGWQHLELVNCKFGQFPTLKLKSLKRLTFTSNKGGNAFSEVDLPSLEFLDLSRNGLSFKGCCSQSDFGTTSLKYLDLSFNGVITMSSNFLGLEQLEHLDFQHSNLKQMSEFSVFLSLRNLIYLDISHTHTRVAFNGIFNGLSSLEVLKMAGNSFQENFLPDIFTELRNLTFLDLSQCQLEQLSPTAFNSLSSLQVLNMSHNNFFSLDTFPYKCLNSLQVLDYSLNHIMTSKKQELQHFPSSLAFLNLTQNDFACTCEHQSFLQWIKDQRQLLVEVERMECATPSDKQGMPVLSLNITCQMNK

| Percentage of binding of TLR4.Fc to GLPS-F3 relative to binding in absence of sugar competitor (TLR4.Fc) [%] | Percentage of binding of CLEC-6 Fc fusion to GLPS-F3 relative to binding in absence of sugar competitor (CLEC-6) [%] | Percentage of binding of Dectin-1 Fc fusion to GLPS-F3 relative to binding in absence of sugar competitor (Dectin-1) [%] | Percentage of binding of CLEC-2 Fc fusion to GLPS-F3 relative to binding in absence of sugar competitor (CLEC-2) [%] | Percentage of binding of DC-SIGN Fc fusion to GLPS-F3 relative to binding in absence of sugar competitor (DC-SIGN) [%] | inhibition of binding of Fc.DC-SIGN to GLPS-F3 (DC-SIGN) [%] | Percentage of binding of MMR.Fc to GLPS-F3 relative to binding in absence of sugar competitor (MMR.Fc) [%] | Percentage of binding of Langerin Fc fusion to GLPS-F3 relative to binding in absence of sugar competitor (Langerin) [%] | inhibition of interaction between Fc.Langerin and GLPS-F3 (Langerin) [%] | inhibition of interaction between GLPS-F3 and Fc.Dectin-1 (Dectin-1) [%] | inhibition of interaction of Fc.CLEC-2 to GLPS-F3 (CLEC-2) [%] | SMILES | inhibition of interaction between GLPS-F3 and MMR.Fc (MMR.Fc) [%] | inhibition of the interaction between Dectin-1.Fc and F3 (Dectin-1.Fc) |
| --- | --- | --- | --- | --- | --- | --- | --- | --- | --- | --- | --- | --- | --- |
| 99 ± 4.7 | 99 ± 8.5 | 91 ± 2.6 | 103 ± 10.2 | 73 ± 8.6 | 27 | 22 ± 3.4 | 16 ± 2.7 | 84 | – | – | CC(=O)N[C@H]1C(O)O[C@H](CO)[C@@H](O)[C@@H]1O (stereo partly drawn) [GlcNAc, N-acetyl-glucosamine] | 78 | – |
| 77 ± 3.1 | 94 ± 13.0 | 17 ± 0.3 | 45 ± 6.2 | 10 ± 1.0 | 90 | 7 ± 2.4 | 5 ± 0.3 | 95 | 83 | 55 | CC(=O)N[C@H]1[C@H]([C@H](O)[C@H](O)CO)OC(O)(C(=O)O)C[C@@H]1O (stereo partly drawn) [sialic acid] | 93 | – |
| 95 ± 4.1 | 96 ± 2.4 | 88 ± 2.6 | 110 ± 11.4 | 110 ± 3.1 | – | 80 ± 4.2 | 97 ± 0.7 | – | – | – | CC(=O)N[C@H]1C(O)O[C@H](CO)[C@H](O)[C@@H]1O (stereo partly drawn) [GalNAc, N-acetyl-galactosamine] | – | – |

| SMILES | Percentage of binding of TLR4.Fc to GLPS-F3 relative to binding in absence of sugar competitor (TLR4.Fc) [%] | Percentage of binding of CLEC-6 Fc fusion to GLPS-F3 relative to binding in absence of sugar competitor (CLEC-6) [%] | Percentage of binding of Dectin-1 Fc fusion to GLPS-F3 relative to binding in absence of sugar competitor (Dectin-1) [%] | Percentage of binding of CLEC-2 Fc fusion to GLPS-F3 relative to binding in absence of sugar competitor (CLEC-2) [%] | Percentage of binding of DC-SIGN Fc fusion to GLPS-F3 relative to binding in absence of sugar competitor (DC-SIGN) [%] | inhibition of binding of Fc.DC-SIGN to GLPS-F3 (DC-SIGN) [%] | Percentage of binding of MMR.Fc to GLPS-F3 relative to binding in absence of sugar competitor (MMR.Fc) [%] | Percentage of binding of Langerin Fc fusion to GLPS-F3 relative to binding in absence of sugar competitor (Langerin) [%] | inhibition of interaction between Fc.Langerin and GLPS-F3 (Langerin) [%] | inhibition of interaction between GLPS-F3 and Fc.Dectin-1 (Dectin-1) [%] | inhibition of interaction of Fc.CLEC-2 to GLPS-F3 (CLEC-2) [%] | inhibition of interaction between GLPS-F3 and MMR.Fc (MMR.Fc) [%] | inhibition of the interaction between Dectin-1.Fc and F3 (Dectin-1.Fc) |
| --- | --- | --- | --- | --- | --- | --- | --- | --- | --- | --- | --- | --- | --- |
| O=C[C@H](O)[C@@H](O)[C@@H](O)[C@H](O)CO [Gal, D-galactose] | 100 ± 2.7 | – | – | – | – | – | – | – | – | – | – | 36 | not |
| O=C[C@H](O)[C@@H](O)[C@H](O)[C@H](O)CO [Glc, D-glucose] | 101 ± 4.7 | – | – | – | – | 45 | – | – | – | – | – | 45 | not |

— patent publication US8460669B2, “Compositions and methods for identifying response targets and treating flavivirus infection responses” (Academia Sinica, priority 2005, dated 2013)
